Read-outs that look alike come from different tables or passages of the source. Non-standard residues stand in square brackets, D forms with d. Residues, ends and D or L forms follow the SMILES beside them. *: point of attachment. Dolaproine = CO[C@@H]([C@@H]1CCCN1)[C@@H](C)C(=O)O; Dil = CC[C@H](C)[C@H](NC)[C@@H](CC(=O)O)OC; X1 = C[C@@H](N*)[C@@H](O)c1ccccc1; NMeV = CN[C@H](C(=O)O)C(C)C Some results are limits rather than exact numbers.

We go through eight molecules from patent publication US20210238187A1, “AZIRIDINE CONTAINING EPOTHILONE ANALOGS, METHODS OF SYNTHESIS, METHODS OF TREATMENT, AND DRUG CONJUGATES” (WILLIAM MARSH RICE UNIVERSITY, priority 2017, published 2021).

Series [1] has as its system MES SA, MES SA DX, and HEK 293T. In words: Cytotoxicity (IC50), summary over MES SA, MES SA DX and HEK 293T. The note with it: read-out: IC50 against all three cell lines (summary of Table 4). The class given is cell-based, human.
Another series deals with NCI/ADR-RES. In words: Cytotoxicity (GI50) assay, NCI/ADR-RES. The conditions noted are these: Homo sapiens, NCI/ADR-RES, read-out: Cancer cell lines GI50, NCI/ADR-RES. The class given is cell-based, human.
The next series concerns Tubulin. In words: Tubulin assembly induction. The class given is biochemical.
Another series has as its system MCF-7. Description: Cytotoxicity (GI50) assay, MCF-7. Format: cell-based, human.
In another series the test system is MES SA. Description: Cytotoxicity assay (CellTiter-Glo), MES SA. Format: cell-based, human. The conditions noted are these: read-out: Cancer cell lines IC50, MES SA.
For a further series, the system named is SNB-75. In words: Cytotoxicity (GI50) assay, SNB-75. The class given is cell-based, human.
In a further series the test system is MES SA DX. In words: Cytotoxicity assay (CellTiter-Glo), MES SA DX. The class given is cell-based, human. The note with it: read-out: Cancer cell lines IC50, MES SA DX. A general note: ATP-based viability assays read luminescence as a measure of living cells.
The subject of the next series is MDA-MB-435. Description: Cytotoxicity (GI50) assay, MDA-MB-435. The class given is cell-based, human.
The next series relates to OVCAR-8. Description: Cytotoxicity (GI50) assay, OVCAR-8. Format: cell-based, human.
In series [2] the test system is human cancer cell lines. In words: cells. The conditions noted are these: read-out: GI50, range over the cell lines of Table 3.
The subject of another series is HEK 293T. Description: Cytotoxicity assay (CellTiter-Glo), HEK 293T. Format: cell-based. The note with it: Homo sapiens, 72 h, read-out: Cancer cell lines IC50, HEK 293T.
In series [3] the test system is human cancer cell lines.
Where [4] appears, read: highly drug resistant human ovarian cancer cell line.
[5] abbreviates: MCF7, human breast cancer cell line, concentration required to decrease cell growth by 50%, read-out: Cancer cell lines GI50, MCF-7.
The mark [6] stands for this setting: MES-SA, human uterine sarcoma cell line, 72 hours, CellTiter-Glo.
[7] abbreviates: SNB-75, human glioblastoma cell line, read-out: Cancer cell lines GI50, SNB-75.
The mark [8] stands for this setting: Homo sapiens, MES SA cell line with marked multidrug resistance, 72 hours, CellTiter-Glo.
Where [9] appears, read: MDA-MB-435, human melanoma cell line, read-out: Cancer cell lines GI50, MDA-MB-435.
Setting [10] is: OVCAR-8, human ovarian cancer cell line, read-out: Cancer cell lines GI50, OVCAR-8.
The mark [11] stands for this setting: human uterine sarcoma cell line, 72 hours, CellTiter-Glo.
[12] abbreviates: Homo sapiens, MCF7, read-out: Cancer cell lines GI50, MCF-7.
The mark [13] stands for this setting: Homo sapiens, SNB-75, read-out: Cancer cell lines GI50, SNB-75.
Setting [14] is: Homo sapiens, MDA-MB-435, read-out: Cancer cell lines GI50, MDA-MB-435.
Setting [15] is: Homo sapiens, OVCAR-8, read-out: Cancer cell lines GI50, OVCAR-8.

`CC(=O)O[C@H]1C(=O)[C@@]2(C)[C@H]([C@H](OC(=O)c3ccccc3)[C@]3(O)C[C@H](OC(=O)[C@H](O)[C@@H](NC(=O)c4ccccc4)c4ccccc4)C(C)=C1C3(C)C)[C@]1(OC(C)=O)CO[C@@H]1C[C@@H]2O` [paclitaxel, reference compound]: the IC50 in [1] (Homo sapiens) is at least 1.76 nM; with MES SA (setting [6]) it was 2.47 nM; in the series on MES SA DX (setting [8]), over 400 nM. The GI50 with NCI/ADR-RES (setting [4]) was found to be 4800 nM; in the series on MCF-7 (setting [5]), 7.8 nM; in the series with SNB-75 (setting [7]), 15 nM; in the series on MDA-MB-435 (setting [9]), 5 nM; with OVCAR-8 (setting [10]), 26 nM. This molecule showed an EC50 with Tubulin ([…]) of 15000 nM.
Turning to `CC[C@H](C)[C@@H]([C@@H](CC(=O)N1CCC[C@H]1[C@H](OC)[C@@H](C)C(=O)N[C@H](C)[C@@H](O)c1ccccc1)OC)N(C)C(=O)[C@@H](NC(=O)[C@@H](NC)C(C)C)C(C)C` [MMAE, monomethyl auristatin E, reference compound] (H-[NMeV]V[Dil][Dolaproine]-X1), the IC50 in [1] is at least 0.068 nM; with MES SA (setting [11]), 0.096 nM; in the series with MES SA DX, 88.2 nM.
As for “N-acetyl calicheamicin γ1^1 [NAC, reference compound]”, the results for the IC50 (in [1]; with MES SA (setting [11]); in the series on MES SA DX) were at least 0.166 nM, 0.364 nM and 15.3 nM, respectively.
As for `CSc1cc(/C=C(\C)[C@@H]2C/C=C(/C)CCC[C@H](C)[C@H](O)[C@@H](C)C(=O)C(C)(C)[C@@H](O)CC(=O)O2)nn1C` [compound 73, (4S,7R,8S,9S,13Z,16S)-4,8-Dihydroxy-5,5,7,9,13-pentamethyl-16-{(1E)-1-[1-methyl-5-(methylsulfanyl)-1H-pyrazol-3-yl]prop-1-en-2-yl}oxacyclohexadec-13-ene-2,6-dione], the IC50 in series [1] (Homo sapiens) was 0.17 to 39.2 nM; with MES SA (setting [6]), 24.1 nM; with MES SA DX (Homo sapiens, MES-SA, 72 h), 39.2 nM. For the same molecule, the GI50 was 52 nM in the series on NCI/ADR-RES, 5 nM with MCF-7 (setting [5]), 5 to 52 nM with human cancer cell lines [2] and 22 nM in the series on OVCAR-8 (setting [10]). Besides, the 50% effective concentration (EC50) in the series on Tubulin came to 9300 nM.
Consider `C/C(=C\c1cc(-c2ccc(F)cc2)on1)[C@@H]1C[C@@H]2N(CCO)[C@]2(C)CCC[C@H](C)[C@H](O)[C@@H](C)C(=O)C(C)(C)[C@@H](O)CC(=O)O1` (stereo partly drawn) [compound 31, (1S,3S,7S,10R,11S,12S,16R)-3-{(1E)-1-[5-(4-Fluorophenyl)-1,2-oxazol-3-yl]prop-1-en-2-yl}-7,11-dihydroxy-17-(2-hydroxyethyl)-8,8,10,12,16-pentamethyl-4-oxa-17-azabicyclo[14.1.0]heptadecane-5,9-dione], for which the GI50 in the series on NCI/ADR-RES stood at 50 nM; with MCF-7 (setting [12]), 13 nM; in the series with SNB-75 (setting [13]), 65 nM; in the series with MDA-MB-435 (setting [14]), 11 nM; in the series with OVCAR-8 (setting [15]), 70 nM. For the same molecule, the IC50 in the series with HEK 293T was 0.32 nM; with MES SA (Homo sapiens, MES-SA, 72 h), 1.41 nM; with MES SA DX (Homo sapiens, MES-SA, 72 h) it was 17.1 nM. In the series with Tubulin ([…]), the EC50 came out at 19000 nM.
Turning to `C/C(=C\c1csc(-c2nc(C)cs2)n1)[C@@H]1C[C@@H]2N[C@]2(C)CCC[C@H](C)[C@H](O)[C@@H](C)C(=O)C(C)(C)[C@@H](O)CC(=O)O1` [compound 32, (1S,3S,7S,10R,11S,12S,16R)-7,11-Dihydroxy-8,8,10,12,16-pentamethyl-3-[(1E)-1-(4′-methyl-2,2′-bi-1,3-thiazol-4-yl)prop-1-en-2-yl]-4-oxa-17-azabicyclo[14.1.0]heptadecane-5,9-dione], the GI50 in the series on NCI/ADR-RES came out at 170 nM; in the series on MCF-7 (setting [12]), 25 nM; in the series on SNB-75 (setting [13]), 68 nM; in the series with MDA-MB-435 (setting [14]) it was 11 nM; with OVCAR-8 (setting [15]), 58 nM. The IC50 in the series with HEK 293T was 63.2 nM; with MES SA (Homo sapiens, MES-SA, 72 h) it was 25.8 nM; in the series with MES SA DX (Homo sapiens, MES-SA, 72 h), over 400 nM. In addition, a half-maximal effect in the series with Tubulin ([…]) (EC50) was put at 43000 nM.
As for `CC(=O)[C@@H]1C[C@@H]2N(CCO)[C@]2(C)CCC[C@H](C)[C@H](O)[C@@H](C)C(=O)C(C)(C)[C@@H](O)CC(=O)O1` (stereo partly drawn) [compound 81, (1S,3S,7S,10R,11S,12S,16R)-3-Acetyl-7,11-dihydroxy-17-(2-hydroxyethyl)-8,8,10,12,16-penta-methyl-4-oxa-17-azabicyclo[14.1.0]heptadecane-5,9-dione], the GI50 with NCI/ADR-RES (setting [4]) is over 5000 nM; in the series with MCF-7 (setting [5]), 580 nM; in the series on SNB-75 (setting [7]) it was 360 nM; in the series with MDA-MB-435 (setting [9]), 200 nM; with OVCAR-8 (setting [10]), 550 nM. The “cytotoxicity (in words)” value in the series with human cancer cell lines [3] is reported as “significant cytotoxicity”. The EC50 in the series with Tubulin ([…]) is over 60000 nM. Besides, the values for the IC50 with MES SA (setting [6]) and in the series with MES SA DX (setting [8]) were 36.1 nM and over 400 nM, respectively.
As for `C/C(=C\c1snnc1C)[C@@H]1C[C@@H]2N(CCO)[C@]2(C)CCC[C@H](C)[C@H](O)[C@@H](C)C(=O)C(C)(C)[C@@H](O)CC(=O)O1` (stereo partly drawn) [compound 30, (1S,3S,7S,10R,11S,12S,16R)-7,11-Dihydroxy-17-(2-hydroxyethyl)-8,8,10,12,16-pentamethyl-3-[(1E)-1-(4-methyl-1,2,3-thiadiazol-5-yl)prop-1-en-2-yl]-4-oxa-17-azabicyclo[14.1.0]heptadecane-5,9-dione], the GI50 in the series with NCI/ADR-RES amounted to 2800 nM; with MCF-7 (setting [12]), 58 nM; in the series on SNB-75 (setting [13]), 100 nM; in the series on MDA-MB-435 (setting [14]), 48 nM; in the series with OVCAR-8 (setting [15]), 210 nM. For the same molecule, the IC50 in the series with HEK 293T is 64 nM; in the series with MES SA (Homo sapiens, MES-SA, 72 h), 37.8 nM; with MES SA DX (Homo sapiens, MES-SA, 72 h) it was over 2500 nM. This molecule also gave an EC50 in the series with Tubulin ([…]) of over 60000 nM.

The term IC50 denotes the concentration that inhibits the measured activity by half. For orientation: EC50 means the midpoint of the concentration-response curve.
